Test results from patent US20240099989A1, “AGENT FOR PREVENTING OR IMPROVING PERIPHERAL NEUROPATHY” (KINKI UNIVERSITY, priority 2021, published 2024).

Tested on: Diabetic Peripheral Neuropathy in a Mouse Induced by Streptozotocin
Assay: Von Frey test (0.16 g filament), diabetic peripheral neuropathy induced by streptozotocin
Assay type: in vivo, C57BL/6J mice
Conditions: time course
Method: On Day 8 of acclimation, the mice in the group receiving streptozotocin and the group receiving streptozotocin+1 mg/kg xylitol were administered with streptozotocin at a dose of 200 mg/kg. A massive dose of streptozotocin destroys pancreatic cells in the mice. As a result, insulin is no longer secreted, and thus, diabetes can be developed in the mice. This day was designated as the first day of the administration (Day 0). Note that streptozotocin was administered only on the first day of administration. […]
Six to seven-week-old male C57BL/6J mice were used for the tests as with Example 7. All the mice were acclimated for seven days after arrival. Then, the mice were grouped into the following four groups: a control group, a group receiving streptozotocin, a group receiving 1 mg/kg xylitol, and a group receiving streptozotocin+1 mg/kg xylitol. Each group consisted of nine mice.
The mice in the group receiving 1 mg/kg xylitol were orally administered with xylitol at a dose of 1 mg/kg daily from Day 0. The mice in the group receiving streptozotocin+1 mg/kg xylitol were orally administered with xylitol at a dose of 1 mg/kg daily from Day 21 of administration.
The mice in the four groups described in (1) of the present example (Example 8) were placed in a cage, and the avoidance response frequency (score) was measured by pressing a filament with a bending force of 0.16 g against the back of the hind paw. […]
On Day 8 of acclimation, the mice in the group receiving streptozotocin and the group receiving streptozotocin+5 mg/kg D-threitol were administered with streptozotocin at a dose of 200 mg/kg. A massive dose of streptozotocin destroys pancreatic cells in the mice. As a result, insulin is no longer secreted, and thus, diabetes can be developed in the mice. This day was designated as the first day of the administration (Day 0). Note that streptozotocin was administered only on the first day of administration.
The mice in the group receiving 5 mg/kg D-threitol and the group receiving streptozotocin+5 mg/kg D-threitol were orally administered with D-threitol at a dose of 5 mg/kg daily from Day 0. […]
The mice in the group receiving 5 mg/kg D-threitol were orally administered with D-threitol at a dose of 5 mg/kg daily from Day 0. […]
The mice in the four groups described in (1) of the present example (Example 10) were placed in a cage, and the avoidance response frequency (score) was measured by pressing a filament with a bending force of 0.16 g against the back of the hind paw. […]
The mice in the four groups described in (1) of the present example (Example 11) were placed in a cage, and the avoidance response frequency (score) was measured by pressing a filament with a bending force of 0.16 g against the back of the hind paw. […]

[1] = streptozotocin 200 mg/kg + 5 mg/kg orally daily from Day 21 (therapy)

`OC[C@@H](O)[C@H](O)CO` [D-threitol] was tested, and the avoidance response score [1] was “reduced from Day 24 onwards”.

`OC[C@H](O)[C@H](O)[C@H](O)[C@@H](O)CO` [L-talitol] was tested, and the avoidance response score [1] was “reduced from Day 21 onwards”.

In the case of `OC[C@@H](O)[C@H](O)[C@@H](O)CO` [xylitol], the avoidance response score (streptozotocin 200 mg/kg + 1 mg/kg orally daily from Day 21 (therapy)) was “reduced from Day 21 onwards”.
